# Results as given in patent US20240342298A1, “METHODS OF TREATING TUMORS BY USING MOLECULAR CONSTRUCT” (Immunwork Inc., priority 2023, published 2024).
# What was measured:
# [1] = HPLC analysis after 5-day incubation in PBS or RPMI medium without cells; assay type: physicochemical; conditions: 1 μM in PBS, 37° C., 5 days
# Method: The total run time was 45 minutes.
# (Panels (A) and (D) of FIG. 8B).
# [2] = tested on: H929 cells; experiment: alamarBlue cell viability assay, H929 cells; assay type: cell-based, human
# Method: (§1) Briefly, H929, U266-CD38^−, MM.1S, and Daudi cells were seeded at 5,000 cells/well in 96-well plates and co-cultured with fresh medium containing different test articles with the indicated concentrations at 37° C. for 5 hours, 1 day, 3 days, or 5 days. The viabilities of the cells were determined by alamarBlue™ cell viability reagent. About 10 μl alamarBlue™ cell viability reagent was added to the cells with a final concentration of 10% v/v, followed by incubating at 37° C. for 1.5 hours. The fluorescence was measured on a microplate reader in arbitrary fluorescent units following excitation at 560 nm and emission at 590 nm.
# (§2) H929 cells were incubated for 5 hours, 1 day, 3 days, or 5 days (FIGS. 12A-12D), and MM.1S, U266-CD38-, and Daudi cells were incubated for 5 days (FIGS. 12E-12G). Then, cell viability was determined.
# [3] = tested on: MM.1S cells; experiment: alamarBlue cell viability assay, MM.1S cells; assay type: cell-based, human
# Method: as §1, §2
# [4] = tested on: U266-CD38- cells; experiment: alamarBlue cell viability assay, U266-CD38- cells; assay type: cell-based; conditions: 5 days, FIG. 12F
# Method: as §1, §2
# [5] = tested on: H929 tumors; experiment: H929 xenograft tumor model (tumors 150±20 mm^3); assay type: in vivo, NOD-SCID mice; conditions: 28 days
# Method: (§3) To generate subcutaneous tumors, 2×10^7 H929 cells in PBS were mixed with 50% (v/v) extracellular matrix gel and injected subcutaneously into the flanks of NOD-SCID mice. Tumor size and body weight were recorded every 2-3 days. Volumes of subcutaneously xenografted tumors in vivo were determined using an external caliper, where tumor volume was calculated by the modified ellipsoid formula, ½×(length×width×width). […] At the end of experiments, tumors were collected and weighed. Statistical analysis was performed with Student t test and statistical differences between groups were analyzed by one-way ANOVA with Bonferroni's multiple comparison post-tests.
# [6] = tested on: H929 tumors; experiment: H929 xenograft tumor model, pilot study (tumors 115±15 mm^3); conditions: single dose 20 nmol/kg i.p. 7 days post-transplantation, measured for 21 days
# Method: as §3
# The tumors from all mice were excised and weighed on day 21 post drug administration.
Molecule,HPLC peaks after long-term incubation (hydrolysis) [1],cell killing ([2]; at doses >10 μM),cell killing ([3]; at doses >10 μM),killing effect [4],tumor growth compared to PBS ([5]; daily i.p. injections),effect of cell death ([2]; even at doses >20 μM),effect of cell death ([3]; even at doses >20 μM),tumor growth compared to PBS ([5]; single dose 20 nmol/kg on day 14 after transplantation),change of tumor sizes compared to PBS [6]
Nc1cccc2c1CN(C1CCC(=O)NC1=O)C2=O (stereo not shown) [lenalidomide],two additional peaks (p2 and p1) respectively corresponding to its two hydrolyzed forms,only weak killing,only weak killing,some killing effect at high concentrations,inhibited tumor growth,–,–,–,–
daratumumab,–,–,–,did not possess any killing effect,–,no effect of cell death,no effect of cell death,inhibited tumor growth,could only slow down tumor growth
